Results as given in US10986838B2, “Herbicides” (SYNGENTA PARTICIPATIONS AG, priority 2016, dated 2021).

Columns and labels:
Type in all cases: in vivo
Setaria faberi (SETFA) [1] = test: Pre-emergence herbicidal activity (B1); details: Test 1b, 1000 g/ha, evaluated after 13 days, 5=total damage to plant, 0=no damage to plant
Experimental: (§1) B1 Pre-Emergence Herbicidal Activity Seeds of a variety of test species were sown in standard soil in pots: Triticum aestivium (TRZAW), Avena fatua (AVEFA), Alopecurus myosuroides (ALOMY), Echinochloa crus-galli (ECHCG), Lolium perenne (LOLPE), Zea Mays (ZEAMX), Abutilon theophrasti (ABUTH), Amaranthus retroflexus (AMARE) and Setaria faberi (SETFA). After cultivation for one day (pre-emergence) under controlled conditions in a glasshouse (at 24/16° C., day/night; 14 hours light; 65% humidity), the plants were sprayed with an aqueous spray solution derived from the formulation of the technical active ingredient in acetone/water (50:50) solution containing 0.5% Tween 20 (polyoxyethelyene sorbitan monolaurate, CAS RN 9005-64-5). The test plants were then grown in a glasshouse under controlled conditions (at 24/16° C., day/night; 14 hours light; 65% humidity) and watered twice daily. After 13 days, the test was evaluated (5=total damage to plant; 0=no damage to plant). Tables B1a and B1b Control of Weed Species by Compound of Formula (I) after Pre-Emergence Application

[2] = tested on: Echinochloa crus-galli (ECHCG); test: Pre-emergence herbicidal activity (B1); details: Test 1b, 1000 g/ha, evaluated after 13 days, 5=total damage to plant, 0=no damage to plant
Experimental: as §1

Zea Mays (ZEAMX) [3] = test: Pre-emergence herbicidal activity (B1); details: Test 1b, 1000 g/ha, evaluated after 13 days, 5=total damage to plant, 0=no damage to plant
Experimental: as §1

[4] = tested on: Abutilon theophrasti (ABUTH); test: Pre-emergence herbicidal activity (B1); details: Test 1b, 1000 g/ha, evaluated after 13 days, 5=total damage to plant, 0=no damage to plant
Experimental: as §1

Lolium perenne (LOLPE) [5] = test: Pre-emergence herbicidal activity (B1); details: Test 1b, 1000 g/ha, evaluated after 13 days, 5=total damage to plant, 0=no damage to plant
Experimental: as §1

[6] = tested on: Amaranthus retroflexus (AMARE); test: Pre-emergence herbicidal activity (B1); details: Test 1b, 1000 g/ha, evaluated after 13 days, 5=total damage to plant, 0=no damage to plant
Experimental: as §1

Setaria faberi (SETFA) [7] = test: Post-emergence herbicidal activity (B2); details: Test B2b, 1000 g/ha, evaluated after 13 days, 5=total damage to plant, 0=no damage to plant
Experimental: (§2) B2 Post-Emergence Herbicidal Activity Seeds of a variety of test species were sown in standard soil in pots: Triticum aestivium (TRZAW), Avena fatua (AVEFA), Alopecurus myosuroides (ALOMY), Echinochloa crus-galli (ECHCG), Lolium perenne (LOLPE), Zea Mays (ZEAMX), Abutilon theophrasti (ABUTH), Amaranthus retroflexus (AMARE) and Setaria faberi (SETFA). After 8 days cultivation (post-emergence) under controlled conditions in a glasshouse (at 24/16° C., day/night; 14 hours light; 65% humidity), the plants were sprayed with an aqueous spray solution derived from the formulation of the technical active ingredient in acetone/water (50:50) solution containing 0.5% Tween 20 (polyoxyethelyene sorbitan monolaurate, CAS RN 9005-64-5). The test plants were then grown in a glasshouse under controlled conditions (at 24/16° C., day/night; 14 hours light; 65% humidity) and watered twice daily. After 13 days, the test was evaluated (5=total damage to plant; 0=no damage to plant). Tables B2a and B2b Control of Weed Species by Compound of Formula (I) after Post-Emergence Application

[8] = tested on: Echinochloa crus-galli (ECHCG); test: Post-emergence herbicidal activity (B2); details: Test B2b, 1000 g/ha, evaluated after 13 days, 5=total damage to plant, 0=no damage to plant
Experimental: as §2

Zea Mays (ZEAMX) [9] = test: Post-emergence herbicidal activity (B2); details: Test B2b, 1000 g/ha, evaluated after 13 days, 5=total damage to plant, 0=no damage to plant
Experimental: as §2

[10] = tested on: Abutilon theophrasti (ABUTH); test: Post-emergence herbicidal activity (B2); details: Test B2b, 1000 g/ha, evaluated after 13 days, 5=total damage to plant, 0=no damage to plant
Experimental: as §2

Lolium perenne (LOLPE) [11] = test: Post-emergence herbicidal activity (B2); details: Test B2b, 1000 g/ha, evaluated after 13 days, 5=total damage to plant, 0=no damage to plant
Experimental: as §2

[12] = tested on: Amaranthus retroflexus (AMARE); test: Post-emergence herbicidal activity (B2); details: Test B2b, 1000 g/ha, evaluated after 13 days, 5=total damage to plant, 0=no damage to plant
Experimental: as §2

Row | SMILES | SETFA damage score (Setaria faberi (SETFA) [1]) | ECHCG damage score [2] | ZEAMX damage score (Zea Mays (ZEAMX) [3]) | ABUTH damage score [4] | LOLPE damage score (Lolium perenne (LOLPE) [5]) | AMARE damage score [6] | SETFA damage score (Setaria faberi (SETFA) [7]) | ECHCG damage score [8] | ZEAMX damage score (Zea Mays (ZEAMX) [9]) | ABUTH damage score [10] | LOLPE damage score (Lolium perenne (LOLPE) [11]) | AMARE damage score [12]
1 | COc1cncc(-c2ccc(N)c(C)n2)c1 [Compound A13] | 0 | 0 | 0 | 0 | 0 | 0 | 1 | 1 | 2 | 0 | 0 | 1
2 | Cc1nc(-c2cncnc2)ccc1N [Compound A14] | 2 | 1 | 1 | 0 | 1 | 0 | 3 | 2 | 2 | 0 | 1 | 2
3 | CNc1ccc(-c2cncnc2)nc1C [Compound A15] | 1 | 1 | 1 | 0 | 0 | 0 | 2 | 2 | 1 | 0 | 1 | 1
4 | CC(Nc1ccc(-c2cncc(F)c2)nc1C(F)(F)F)c1cccc(C(F)(F)F)c1 (stereo not drawn) [Compound A16] | 4 | 1 | 1 | 0 | 0 | 0 | 5 | 3 | 3 | 0 | 1 | 0
5 | CC(Nc1ccc(-c2cncc(F)c2)nc1C(F)(F)F)c1ccccc1 (stereo not drawn) [Compound A17] | 2 | 0 | 0 | 0 | 0 | 0 | 4 | 4 | 4 | 0 | 1 | 0
6 | Fc1cncc(-c2ccc(NCc3cccc(Cl)c3)c(C(F)(F)F)n2)c1 [Compound A18] | 4 | 2 | 4 | 0 | 0 | 0 | 5 | 3 | 5 | 0 | 2 | 0
7 | COC(=O)C(C)Nc1ccc(-c2cncc(F)c2)nc1C(F)(F)F (stereo not drawn) [Compound A19] | 4 | 3 | 5 | 0 | 2 | 1 | 5 | 4 | 5 | 1 | 3 | 2
8 | Cc1ccc(CNc2ccc(-c3cncc(F)c3)nc2C(F)(F)F)cc1 [Compound A20] | 5 | 2 | 3 | 0 | 0 | 0 | 5 | 3 | 5 | 0 | 2 | 0
9 | Fc1cncc(-c2ccc(NCc3ccccc3)c(C(F)(F)F)n2)c1 [Compound A21] | 5 | 3 | 3 | 0 | 2 | 1 | 5 | 1 | 5 | 0 | 1 | 1
